Test results: patent publication EP0942911B1, “BENZOPYRANOPYRROLE AND BENZOPYRANOPYRIDINE ALPHA-1 ADRENERGIC COMPOUNDS” (Abbott Laboratories, priority 1996, dated 1998)
Structures can show the parent of a compound that is named as a salt.

What was measured:
Experiment in all cases: biochemical
[1] = target: T1, α-1A adrenoreceptor (rat submaxillary gland) (Rattus norvegicus, UniProt P43140); assay type: binding; conditions: [3H]-prazosin radioligand; rat submaxillary gland membranes; read-out: Radioligand Binding (Ki, nM) 1A (Rat)
T1 sequence (P43140 1-466): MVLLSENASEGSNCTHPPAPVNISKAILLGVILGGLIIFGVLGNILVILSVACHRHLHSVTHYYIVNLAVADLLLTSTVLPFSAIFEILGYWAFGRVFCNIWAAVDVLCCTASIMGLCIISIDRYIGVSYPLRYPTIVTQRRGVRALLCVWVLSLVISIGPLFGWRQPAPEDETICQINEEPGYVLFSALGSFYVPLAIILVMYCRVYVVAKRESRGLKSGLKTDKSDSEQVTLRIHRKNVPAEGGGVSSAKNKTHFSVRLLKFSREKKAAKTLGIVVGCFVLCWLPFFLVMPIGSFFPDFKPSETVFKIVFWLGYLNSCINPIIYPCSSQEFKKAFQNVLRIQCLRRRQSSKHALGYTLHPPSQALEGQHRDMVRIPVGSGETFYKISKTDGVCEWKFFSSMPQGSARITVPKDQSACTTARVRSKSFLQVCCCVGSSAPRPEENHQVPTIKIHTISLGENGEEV
Experimental: Additionally, binding affinity against the pharrnacologically defined α-1A adrenoreceptor (rat submaxillary gland) was measured.
(§1) On the fifth day of culture, growth medium was removed from cells grown in roller bottles, and the cells were washed twice with PBS (Sigma, 120 mM NaCl, 2.7 mM KCl, 10 mM Na2HPO4-NaH2PO4, pH = 7.4). Cells were detached from the roller bottles by incubating for 15 minutes at 37 °C in a Tris-EDTA solution (10 mM Tris, 100 mM NaCl, 1 mM EDTA, pH = 7.4). The cell suspension from each roller bottle was decanted into tared centrifuge tubes and kept on ice. An aliquot of each cell suspension was generally taken for cell counting. Cells were centrifuged at 3000 X G for 5 min at 2-4 °C, washed with PBS and recentrifuged. The supernatant was decanted and the pellet weighed to determine the wet weight of cells. Cells were washed a final time in 40 vol 5 mM Tris-HCl, 5 mM EDTA, pH = 7.7, and centrifuged at 40,000 X G for 10 minutes. Cells were homogenized in 10 mL of 50 mM Tris-HCl, 5 mM EDTA (pH = 7.4) and diluted to 40 mL/tube. Homogenates were centrifuged at 40,000 X G for 10 minutes. The supernatant was decanted and the pellets rehomogenized in 50 mM Tris-HCl (pH = 7.4) and centrifuged as before. The supernatant was decanted and the homogenate resuspended in 6.25 volumes (per gram wet weight) of 50 mM Tris-HCl and aliquots of the pooled homogenates frozen in liquid N2 and stored at -70 °C until the time of assay. Rat submaxillary glands were used for α-1A adrenoreceptors and were prepared essentially as described (Michel, A. D., Loury, D. N. and Whiting, R. L., Brit. J. Pharmacol. 98: 83-889 (1989)).
(§2) Receptor binding assays for α-1 adrenoreceptors were performed essentially as described by Greengrass and Bremner (Eur. J. Pharmacol. 55: 323-326 (1979)). […] Radioactivity was determined by standard liquid scintillation techniques. Data were analyzed as previously described (Hancock, A. A., Kyncl, J. J., Martin, Y. C. and DeBernardis, J. F., J. Receptor Res. 8: 23-46 (1988)).

[2] = target: T2, α-1a adrenoreceptor (Bos taurus, UniProt P18130); assay type: binding, bovine; conditions: [3H]-prazosin radioligand; cloned receptor in LTK cell membranes; read-out: Radioligand Binding (Ki, nM) 1a (Bovine)
T2 sequence (P18130 1-466): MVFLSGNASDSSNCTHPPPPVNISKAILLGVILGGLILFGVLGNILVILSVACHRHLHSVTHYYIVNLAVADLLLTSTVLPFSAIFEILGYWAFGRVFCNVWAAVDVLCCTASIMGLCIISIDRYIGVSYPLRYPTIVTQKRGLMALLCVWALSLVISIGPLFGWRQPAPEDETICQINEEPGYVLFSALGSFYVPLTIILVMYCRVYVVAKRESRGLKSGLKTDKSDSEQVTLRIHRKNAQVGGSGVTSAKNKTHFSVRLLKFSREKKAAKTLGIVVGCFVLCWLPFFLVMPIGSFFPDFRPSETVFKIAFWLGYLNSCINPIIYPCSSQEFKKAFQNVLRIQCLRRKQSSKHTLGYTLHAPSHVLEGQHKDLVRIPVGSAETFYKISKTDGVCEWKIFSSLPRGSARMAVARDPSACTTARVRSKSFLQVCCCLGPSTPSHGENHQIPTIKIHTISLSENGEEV
Description: (§3) The cDNA clones encoding the α-1 adrenoreceptors (α-1a, α-1b, and α-1d) were obtained from TULCO (Triangle Universities Licensing Consortium, Research Triangle Park, NC) and inserted into the eukaryotic expression vector SnaB30. In this vector, expression of the adrenoreceptor gene is under the transcriptional control of an SV40 early promoter. Positive drug selection is provided by a neomycin-resistance gene. Mouse fibroblast cells (LTK) were transfected with the α1 expression plasmids and grown in Dulbecco's modified Eagle's medium (DMEM) containing 10% fetal calf serum and 30 µM G418. Stable G418-resistant parental lines were generated, with successful expression of adrenoreceptor protein monitored using radioligand binding techniques. Stable single cell clones derived from the parental lines were screened in adrenoreceptor binding assays to identify clones having high adrenoreceptor density. Roller bottle cultures of the cloned lines were used to provide cell membranes for subsequent adrenoreceptor binding characterization studies. A cell line containing the SnaB30 vector expressing the human erythropoietin gene served as a negative control.
(§4) For adrenoreceptor binding assays, large scale membrane preparations were utilized in which 6 million cells were seeded into small (450 cm^2) Corning tissue culture roller bottles. 200 mL of DMEM containing 10% fetal calf serum and 300 µM G418 were added to each roller bottle. A 95% air / 5% CO2 gas mixture (sterile) was injected into each roller bottle prior to sealing. The bottles were then incubated at 37 °C on a roller rack for 5 days. Cells were re-fed with fresh medium after 3 days in culture.
as §1, §2

[3] = target: T3, α-1b adrenoreceptor (Mesocricetus auratus, UniProt P18841); assay type: binding, hamster; conditions: [3H]-prazosin radioligand; cloned receptor in LTK cell membranes; read-out: Radioligand Binding (Ki, nM) 1b (Hamster)
T3 sequence (P18841 1-515): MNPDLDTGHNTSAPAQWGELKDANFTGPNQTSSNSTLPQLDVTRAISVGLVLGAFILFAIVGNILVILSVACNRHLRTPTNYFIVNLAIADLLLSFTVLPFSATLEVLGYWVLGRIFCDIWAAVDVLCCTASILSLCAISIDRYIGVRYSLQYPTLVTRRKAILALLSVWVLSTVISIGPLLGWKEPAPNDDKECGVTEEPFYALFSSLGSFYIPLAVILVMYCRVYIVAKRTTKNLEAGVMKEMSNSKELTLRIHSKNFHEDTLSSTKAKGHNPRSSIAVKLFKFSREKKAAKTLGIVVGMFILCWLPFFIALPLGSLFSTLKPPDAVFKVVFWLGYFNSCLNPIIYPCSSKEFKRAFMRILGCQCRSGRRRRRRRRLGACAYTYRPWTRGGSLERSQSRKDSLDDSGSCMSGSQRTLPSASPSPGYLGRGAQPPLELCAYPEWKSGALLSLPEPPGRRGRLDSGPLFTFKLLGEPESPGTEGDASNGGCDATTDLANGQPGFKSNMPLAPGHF
Description: as §3, §4, §1, §2

[4] = target: T4, α-1d adrenoreceptor (Rattus norvegicus, UniProt P23944); assay type: binding; conditions: [3H]-prazosin radioligand; cloned receptor in LTK cell membranes; read-out: Radioligand Binding (Ki, nM) 1d (Rat)
T4 sequence (P23944 1-561): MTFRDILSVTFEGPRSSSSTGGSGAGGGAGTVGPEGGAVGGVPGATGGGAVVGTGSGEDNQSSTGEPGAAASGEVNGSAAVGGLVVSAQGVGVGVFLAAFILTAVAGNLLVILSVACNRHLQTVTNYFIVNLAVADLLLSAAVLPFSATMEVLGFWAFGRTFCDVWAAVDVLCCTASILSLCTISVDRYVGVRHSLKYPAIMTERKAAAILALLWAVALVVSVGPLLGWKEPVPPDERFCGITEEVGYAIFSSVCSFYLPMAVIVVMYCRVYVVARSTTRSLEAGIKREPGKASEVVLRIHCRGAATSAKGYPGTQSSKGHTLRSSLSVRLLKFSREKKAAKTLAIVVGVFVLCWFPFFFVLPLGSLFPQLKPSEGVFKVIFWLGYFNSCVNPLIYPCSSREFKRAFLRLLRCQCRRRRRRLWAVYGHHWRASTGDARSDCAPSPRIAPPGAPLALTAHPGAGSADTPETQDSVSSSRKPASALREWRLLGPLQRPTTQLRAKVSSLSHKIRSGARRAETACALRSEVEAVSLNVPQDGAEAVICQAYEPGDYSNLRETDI
Description: as §3, §4, §1, §2

SMILES | Ki [1] | Ki [2] | Ki [3] | Ki [4]
COc1cccc2c1[C@H]1CN(CCCCn3c(=O)[nH]c4c(sc5ncc(-c6ccccc6)nc54)c3=O)C[C@@H]1CO2 [Example 9, 3-[4-((3aR,9bS)-trans-9-Methoxy-1,2,3,3a,4,9b-hexahydro-[1]-benzopyrano[3,4-c]pyrrol-2-yl)butyl]-8-phenyl-pyrazino[2',3':4,5]thieno[3,2-d]pyrimidine-2,4(1H,3H)-dione hydrochloride] | 2.27 nM | 0.325 nM | 17.8 nM | 1.55 nM
COc1cccc2c1[C@H]1CN(CCCCn3c(=O)[nH]c4c(sc5ncc(Cl)nc54)c3=O)C[C@@H]1CO2 [Example 10, 3-[4-((3aR,9bS)-trans-9-Methoxy-1,2,3,3a,4,9b-hexahydro-[1]-benzopyrano[3,4-c]pyrrol-2-yl)butyl]-8-chloro-pyrazino[2',3':4,5]thieno[3,2-d]pyrimidine-2,4(1H,3H)-dione hydrochloride] | 0.662 nM | 0.406 nM | 10.4 nM | 1.6 nM
COCCn1c(=O)n(CCCCN2C[C@@H]3COc4cccc(OC)c4[C@H]3C2)c(=O)c2sc3nccnc3c21 [Example 11, 3-[4-((3aR,9bS)-trans-9-Methoxy-1,2,3,3a,4,9b-hexahydro-[1]-benzopyrano[3,4-c]pyrrol-2-yl)butyl]-1-(2-Methoxyethyl)-pyrazino[2',3':4,5]thieno[3,2-d]pyrimidine-2,4(1H,3H)-dione hydrochloride] | 0.374 nM | 0.243 nM | 3.78 nM | 1.46 nM
COc1cccc2c1[C@H]1CN(CCCCn3c(=O)[nH]c4c(sc5nccnc54)c3=O)C[C@@H]1CO2 [Example 12, 3-[4-((3aR,9bS)-trans-9-Methoxy-1,2,3,3a.4,9b-hexahydro-[1]-benzopyrano[3,4-c]pyrrol-2-yl)butyl]-pyrazino[2',3':4,5]thieno[3,2-d]pyrimidine-2,4(1H,3H)-dione dihydrochloride] | 0.52 nM | 0.375 nM | 5.25 nM | 2.17 nM
COc1cccc2c1[C@@H]1CN(CCCCn3c(=O)[nH]c4c(sc5nccnc54)c3=O)C[C@H]1CO2 [Example 14, 3-[4-((3aS,9bR)-trans-9-Methoxy-1,2,3,3a,4,9b-hexahydro-[1]-benzopyrano[3,4-c]pyrrol-2-yl)butyl]-pyrazino[2',3':4,5]thieno[3,2-d]pyrimidine-2,4(1H,3H)-dione dihydrochloride] | 0.105 nM | 0.038 nM | 1.37 nM | 0.145 nM
COc1cccc2c1[C@@H]1CN(CCCCn3c(=O)[nH]c4c(sc5nccnc54)c3=O)C[C@@H]1CO2 [Example 15, 3-[4-((3aR,9bR)-cis-9-Methoxy-1,2,3,3a,4,9b-hexahydro-[1]-benzopyrano[3,4-c]pyrrol-2-yl)butyl]-pyrazino[2',3':4,5]thieno[3,2-d]pyrimidine-2,4(1H,3H)-dione dihydrochloride] | 0.227 nM | 0.068 nM | 4.41 nM | 0.928 nM
COc1cccc2c1[C@@H]1CN(CCCCn3c(=O)[nH]c4c(sc5ncc(Cl)nc54)c3=O)C[C@@H]1CO2 [Example 16, 3-[4-((3aR,9bR)-cis-9-Methoxy-1,2,3,3a,4,9b-hexahydro-[1]-benzopyrano[3,4-c]pyrrol-2-yl)butyl]-8-chloro-pyrazino[2',3':4,5]thieno[3,2-d]pyrimidine-2,4(1H,3H)-dione hydrochloride] | 0.373 nM | 0.073 nM | 8.64 nM | 0.729 nM
COc1cccc2c1[C@@H]1CN(CCCCn3c(=O)[nH]c4c(sc5c(Cl)ccnc54)c3=O)C[C@H]1CO2 [Example 19, 3-[4-((3aS,9bR)-trans-9-Methoxy-1,2,3,3a,4,9b-hexahydro-[1]-benzopyrano[3,4-c]pyrrol-2-yl)butyl]-6-chloro-pyrido[2',3':4,5]thieno[3,2-d]pyrimidine-2,4(1H,3H)-dione hydrochloride] | 0.059 nM | 0.025 nM | 1.13 nM | 0.108 nM
